Earlier results as cited in US4842859A, “Pharmaceutical compositions for reducing hyperlipidemia and platelet-aggregation” (priority 1986, dated 1989).

Tests used:
[1] = patients; prior art; listed as clofibrate
[2] = test system: transient ischemic attacks; conditions: men; prior art

**Q.** With CCOC(=O)C(C)(C)Oc1ccc(Cl)cc1 [Clofibrate] as the molecule, how does the “side effects / toxic effects” value [1] read?
**A.** Its value is “decreased libido and breast tenderness”.

**Q.** Which “effect on incidence of transient ischemic attacks” value [2] does the source give for CC(=O)Oc1ccccc1C(=O)O [Aspirin] here?
**A.** Its value is “decrease the incidence of transient ischemic attacks”.
